Laboratory results published in patent EP0193189A1, “Novel compound, its production and insecticidal and acaricidal composition containing it as an active ingredient” (SUMITOMO CHEMICAL COMPANY, LIMITED, priority 1985, dated 1986).
≈ marks a conversion by molar mass, not a printed value. Where two headings read alike, the source gives them in different places.

Tests used:
Type in all cases: in vivo
[1] = test system: common mosquito (Culex pipiens pallens); experiment: Test Example 1: common mosquito larvae in diluted emulsifiable concentrate, mortality and emergence inhibition; settings: 3.5 ppm; for mortality at 3.5 ppm / pest or weed control at 3.5 ppm: Culex pipiens; for mortality at 3.5 ppm: 24 h, read-out: Mortality; for pest or weed control at 3.5 ppm: read-out: Inhibitory ratio of emergence
Method: The emulsifiable concentrates of the following present compounds obtained according to Formulation example 2 were each diluted with water so as to obtain respective aqueous solutions containing 3.5 ppm of said compounds, respectively. One hundred ml of thus diluted aqueous solutions were poured into respective polyethylene cups of 180 ml volume, and 20 of the last instar larvae of common mosquito (Culex pipiens pallens) were liberated thereto. After one day, the dead or alive of the larvae were examined.
Thereafter, the feed was added to respective cups and the number of emerged pupae of the respective cups was counted when all the pupae of no treatment group had emerged to calculate the inhibitory ratios of the emergence.
The mortality and the inhibitory ratio of the emergence are shown according to the following three criteria: • mortality: A; 90% or more, • B; less than 90% to 10%, • C; less than 10%. • inhibitory: A; 90% or more, ratio of • emergence B; less than 90% to 80% • C; less than 80%.

[2] = test system: tobacco cutworms (Spodoptera litura); experiment: Test Example 2: tobacco cutworm larvae on treated artificial feed; settings: 150 ppm solution, 2 ml in 13 g artificial feed, 4th instar larvae, six days after; for mortality at 150 ppm: Spodoptera litura, 144 h, read-out: Mortality (%)
Excerpt: The emulsifiable concentrates of the following present compounds obtained according to Formulation example 2 were each diluted with water to obtain respective 667 times dilution aqueous solutions (corresponding to 150 ppm) containing said compounds, respectively. Two ml of thus diluted solutions were impregnated into the artificial feeds (13 g) for tobacco cutworms (Spodoptera litura) and thus prepared feeds were placed in polyethylene cups of 11 cm in diameter, respectively. Ten of the 4th instar larvae were liberated thereon.
Six days after, the dead and alive of the larvae were examined to calculate the mortality (two replications).

[3] = test system: resistant strain of green rice leafhopper (Nephotetix cincticeps); experiment: Test Example 3: rice seedling dip test, resistant green rice leafhopper; settings: Nephotettix cincticeps, 24 h, rice seedlings dipped 1 minute; adults of resistant strain; after one day; read-out: LC50 value (ppm)
Method: The emulsifiable concentrates of the following present compounds and control compounds obtained according to Formulation example 2 were each diluted with water to a prescribed concentration, and rice seedlings (about 12 cm in length) were dipped for 1 minute in the resulting aqueous dilute solutions. After air-drying, the seedlings were placed in test tube, and 10 adults of a resistant strain of green rice leafhopper (Nephotetix cincticeps) were liberated in the tube. After one day, the dead and alive of the adults were examined to obtain LC50 (50% lethal concentration)(two replications).

[4] = test system: brown rice planthoppers (Nila^parvata luqens); experiment: Test Example 7: spray on potted rice plants, brown rice planthopper, residual effect; settings: 20 h, 100 ppm spray, 20 ml/2 pots, twenty hours after liberation
Method: The emulsifiable concentrates of the following compounds and control compounds obtained according to Formulation example 2 were each diluted with water one thousand times (corresponding to 100 ppm) and each of thus prepared solutions was sprayed at the rate of 20 ml/2 pots to the rice plant seedlings planted in Wagner pots having a surface area of one ten thousandth are. After air-drying, the treated plants were covered with the iron wire cages, and about 15 adults of brown rice planthoppers (Nila^parvata luqens) were liberated thereto. Further, about 15 adults thereof were also liberated thereto 4 days after the application to examine the residual effects. Twenty hours after each liberation, the dead and alive adults were examined to calculate the mortality.

[5] = test system: houseflies (Musca domestica) of WHO strains; experiment: Test Example 6: housefly filter paper and sucrose bait test; settings: 0.7 ml on filter paper with sucrose bait, adult females, after 48 hours, read-out: LC50 value (ppm)
Method: On the bottom of a polyethylene cup of 5.5 cm- in diameter was placed a piece of filter paper of the same size as the bottom, and 0.7 ml of a test solution, prepared by diluting the emulsifiable concentrates of the following present compounds and control compounds prepared according to Formulation example 2 to a prescribed concentration with water, was added dropwise to the filter paper. Thirty milligrams of sucrose were uniformly placed on the filter paper as bait. Thereafter, 10 adult female houseflies (Musca domestica) of WHO strains were liberated in the cup, which was then covered with a lid. After 48 hours, the dead and alive were examined to obtain LC50 value (50% lethal concentration) (two replications).

[6] = test system: carmine spider mite (Tetranychus cinnabarinus); experiment: Test Example 8: carmine spider mite on potted kidney bean, degree of damage; set-up: key: -: No damage is observed.; +: Slight damage is observed.; ++: The same damage as in the untreated plot is observed; settings: 500 ppm spray 10 ml/pot plus 2 ml soil treatment; after 8 days
Method: The female adults of carmine spider mite (Tetranychus cinnabarinus) were put at a rate of 10 adults/leaf on the leaves of potted kidney bean (at the primordial leaf stage) which had elapsed 7 days after sowing, and placed in a constant-temperature room kept at 25°C. After 6 days, the 200-fold aqueous dilute solutions (corresponding to 500 ppm), prepared from the emulsifiable concentrates of the following present compounds and control compounds prepared according to Formulation example 2, were each sprayed at a rate of 10 ml/pot on a turn table. At the same time, the soil in the pot was treated with 2 ml of each aqueous solution. After 8 days, the degree of damage of the plant by the mite was examined.
Criteria of the effect: • - : No damage is observed. • + : Slight damage is observed. • ++: The same damage as in the untreated plot is observed.

[7] = 20 last instar larvae, after one day
[8] = counted when all pupae of no treatment group had emerged
[9] = residual effect, read-out: Mortality (%) liberated 4 days after application
[10] = read-out: Mortality (%) liberated just after air-drying

| SMILES | mortality at 3.5 ppm [1, 7] | pest or weed control at 3.5 ppm [1, 8] | mortality at 150 ppm [2] | LC50 [3] | further results |
| --- | --- | --- | --- | --- | --- |
| C=CC(C)(CCCc1ccc(F)c(Oc2ccccc2)c1)c1ccc(OCC)cc1 (stereo not drawn) [(2)] | > 90% | > 90% | 100% | 80 µg/mL (≈ 198 µM) | mortality at 100 ppm [4, 9]: 100%; mortality at 100 ppm [4, 10]: 100% |
| C#CC(C)(CCCc1ccc(F)c(Oc2ccccc2)c1)c1ccc(OC)cc1 (stereo not drawn) [(5)] | > 90% | > 90% | 100% | 56 µg/mL (≈ 144 µM) | LC50 [5]: 13 µg/mL (≈ 33.5 µM) |
| C#CC(C)(CCCc1ccc(F)c(Oc2ccccc2)c1)c1ccc(OCC=C)cc1 (stereo not drawn) [(8)] | > 90% | > 90% | 100% | 54 µg/mL (≈ 130 µM) |  |
| C#CC(C)(CCCc1ccc(F)c(Oc2ccccc2)c1)c1ccc(Cl)cc1 (stereo not drawn) [(10)] | > 90% | > 90% | 100% | 32 µg/mL (≈ 81.4 µM) |  |
| C#CC(C)(CCCc1ccc(F)c(Oc2ccccc2)c1)c1ccc2c(c1)OCO2 (stereo not drawn) [(12)] | > 90% | > 90% | 100% | 63 µg/mL (≈ 157 µM) | LC50 [5]: 13 µg/mL (≈ 32.3 µM) |
| C#CC(C)(CCCc1ccc(F)c(Oc2ccccc2)c1)c1ccc(C(F)(F)F)cc1 (stereo not drawn) [(13)] | > 90% | > 90% | 100% | 10 µg/mL (≈ 23.4 µM) | Degree of damage [6]: - |
| C#CC(C)(CCCc1cccc(Oc2ccccc2)c1)c1ccc2c(c1)OCO2 (stereo not drawn) [(14)] | > 90% | > 90% | 100% |  |  |
| C#CC(C)(CCCc1cccc(Oc2ccc(F)cc2)c1)c1ccc(OCC)cc1 (stereo not drawn) [(15)] | > 90% | > 90% | 100% | 3.6 µg/mL (≈ 8.94 µM) |  |
| C#CC(C)(CCCc1cccc(Oc2ccccc2)c1)c1ccc(OCC)c(Cl)c1 (stereo not drawn) [(16)] | 10 to 90% | > 90% | 100% | 15 µg/mL (≈ 35.8 µM) |  |
| C#CC(C)(CCCc1cccc(Oc2ccccc2)n1)c1ccc(OCC)cc1 (stereo not drawn) [(18), 3-(4-ethoxyphenyl)-3-methyl-6-(6-phenoxypyridin-2-yl)-l-hexyne] | > 90% | > 90% | 100% |  | Degree of damage [6]: - ~ + |
| C=CC(C)(CCCc1cccc(Oc2ccccc2)n1)c1ccc(OCC)cc1 (stereo not drawn) [(19)] | 10 to 90% | > 90% |  |  |  |
| C#CC(C)(CCCc1cccc(Sc2ccccc2)c1)c1ccc(OCC)cc1 (stereo not drawn) [(22)] | 10 to 90% | > 90% | 100% | 90 µg/mL (≈ 225 µM) |  |
| C#CC(C)(CCCc1cccc(Oc2ccccc2)c1)c1ccc(CC)cc1 (stereo not drawn) [(23)] | > 90% | > 90% | 100% | 40 µg/mL (≈ 109 µM) |  |
| C#CC(C)(CCCc1cccc(Oc2ccccc2)c1)c1ccc(OC)cc1 (stereo not drawn) [(24)] | 10 to 90% | > 90% | 100% | 27 µg/mL (≈ 72.9 µM) |  |
| C#CC(C)(CCCc1cccc(Oc2ccccc2)c1)c1ccc(Cl)cc1 (stereo not drawn) [(25)] | > 90% | > 90% | 100% | 61 µg/mL (≈ 163 µM) |  |
| C#CC(CC)(CCCc1cccc(Oc2ccccc2)c1)c1ccc(Cl)cc1 (stereo not drawn) [(26)] | > 90% | > 90% |  |  |  |
| C#CC(C)(CCCc1ccc(F)c(Oc2ccccc2)c1)c1ccc(OC(F)F)c(Cl)c1 (stereo not drawn) [(27)] | 10 to 90% | > 90% |  | 31 µg/mL (≈ 67.6 µM) | LC50 [5]: 11 µg/mL (≈ 24 µM) |

| SMILES | mortality at 3.5 ppm [1, 7] | pest or weed control at 3.5 ppm [1, 8] | mortality at 150 ppm [2] | LC50 [3] | further results |
| --- | --- | --- | --- | --- | --- |
| C#CC(CCCc1cccc(Oc2ccccc2)c1)c1ccc(OCC)cc1 (stereo not drawn) [(28)] | > 90% | > 90% |  |  |  |
| C#CC(CC)(CCCc1ccc(F)c(Oc2ccccc2)c1)c1ccc(OCC)cc1 (stereo not drawn) [(29)] | > 90% | > 90% | 100% |  |  |
| C#CC(C)(CCCc1ccc(F)c(Cc2ccccc2)c1)c1ccc(OCC)cc1 (stereo not drawn) [(30)] | > 90% | > 90% | 100% | 28 µg/mL (≈ 69.9 µM) |  |
| C=CC(C)(CCCc1ccc(F)c(Nc2ccccc2)c1)c1ccc(OCC)cc1 (stereo not drawn) [(31)] | > 90% | > 90% | 100% |  |  |
| C#CC(CC)(CCCc1cccc(Oc2ccccc2)c1)c1ccc(OCC)cc1 (stereo not drawn) [(32)] | > 90% | > 90% |  |  |  |
| C#CC(C)(CCCc1ccc(F)c(Oc2ccc(C)cc2)c1)c1ccc(OCC)cc1 (stereo not drawn) [(33)] | > 90% | > 90% | 100% | 23 µg/mL (≈ 55.2 µM) |  |
| C#CC(C)(CCCc1cccc(Oc2ccccc2)c1)c1ccc(F)cc1 (stereo not drawn) [(35)] | > 90% | > 90% | 100% | 93 µg/mL (≈ 259 µM) |  |
| C#CC(C)(CCCc1ccc(F)c(Oc2ccccc2)c1)c1ccc(Cl)c(Cl)c1 (stereo not drawn) [(36)] | 10 to 90% | > 90% |  | 64 µg/mL (≈ 150 µM) |  |
| C#CC(C)(CCCc1ccc(F)c(Oc2ccccc2)c1)c1ccc(C(F)(F)F)cc1 (stereo not drawn) [(37)] |  |  |  |  | Mortality ([1]; 20 last instar larvae, after one day, 1440 min): A (90% or more); Inhibitory ratio of emergence [1, 8]: A (90% or more); Mortality (%) ([2]; 8640 min): 100%; LC50 [5]: 13 µg/mL (≈ 30.5 µM) |
| C#CC(C)(CCCc1ccc(F)c(Oc2ccc(F)cc2)c1)c1ccc(OCC)cc1 (stereo not drawn) [(38)] | > 90% | > 90% | 100% | 1.9 µg/mL (≈ 4.52 µM) | LC50 [5]: 14 µg/mL (≈ 33.3 µM) |
| C#CC(C)(CCCc1ccc(F)c(Oc2ccccc2)c1)c1ccc(OCC=C)c(Cl)c1 (stereo not drawn) [(40)] | 10 to 90% | > 90% |  | 46 µg/mL (≈ 102 µM) |  |
| C#CC(CC)(CCCc1ccc(F)c(Oc2ccccc2)c1)c1ccc(Cl)cc1 (stereo not drawn) [(41)] | > 90% | > 90% |  |  |  |
| C#CC(CCCC)(CCCc1ccc(F)c(Oc2ccccc2)c1)c1ccc(OCC)cc1 (stereo not drawn) [(42)] | 10 to 90% | > 90% | 100% |  |  |
| C#CC(C)(CCCc1cccc(Oc2ccccc2)n1)c1ccc(OC)cc1 (stereo not drawn) [(44), 3-(4-methoxyphenyl)-3-methyl-6-(6-phenoxy-pyridin-2-yl)-l-hexyne] | 10 to 90% | > 90% | 100% |  |  |
| CCC(C)c1ccccc1OC(=O)NC (stereo not drawn) [(C), BPMC, reference compound] |  |  |  | 190 µg/mL (≈ 917 µM) | mortality at 100 ppm [4, 9]: 6%; mortality at 100 ppm [4, 10]: 100% |
| Cc1cc(Cl)ccc1N=CN(C)C [(E), Chlordimeform, reference compound] |  |  |  |  | Degree of damage [6]: - ~ + |
